In brackets after ≈: the same amount, converted by molar mass. Read-outs that look alike come from different tables or passages of the source.
What was measured:
[1] = tested on: MRSA; assay: Antibacterial activity of flavonoids on MRSA (agar plate dilution method, MIC); assay type: cell-based, Staphylococcus aureus; settings: flavonoid alone; for MIC: 20 h
Procedure: (§1) MRSA were employed as bacteria to be tested. The antibacterial activity was determined according to the agar plate dilution method defined by Japan Society of Chemotherapy (Chemotherapy 29(1), 76-79(1981)). The employed plate medium for the measurement of sensitivity was semisynthetic medium based on Mueller-Hinton Agar, and the bacteria solution for seeding was prepared by incubating the test bacterium in Mueller-Hinton Broth at 37° C. for 20 hours, followed by diluting in 0.85% saline to give 10^6 CFU/mL. The test samples were produced in two times-serial dilution method. To this plate medium for the measurement of sensitivity, was seeded a bacteria solution with a Micro Planter® (Sakuma Seisakusho). After incubating at 37° C. for 20 hours, a minimum inhibitory concentration (MIC) was determined. […] In addition, MIC50 indicates a concentration yielding the proliferation inhibitory effect in 50% of total number of MRSA strains, whilst MIC90 indicates a concentration yielding the proliferation inhibitory effect in 90% of total number of MRSA strains.

[2] = tested on: MRSA; assay: Enhancement of the antibacterial activity of methicillin by various flavonoids on MRSA; assay type: cell-based, Staphylococcus aureus; settings: 50 μg/mL of the named flavonoid added
Procedure: as §1
Antibacterial Activities of Methicillin on MRSA with 50 μg/mL of Various Flavonoids

[3] = tested on: MRSA; assay: Enhancement of the antibacterial activity of various antibiotics by flavone on MRSA; assay type: cell-based, Staphylococcus aureus; settings: for MIC: Staphylococcus aureus, antibiotics alone; for MIC +flavone: addition of 50 μg/mL of flavone
Procedure: as §1
Antibacterial Activities of Various β-Lactam Antibiotics on MRSA with 50 μg/mL of Flavone

[4] = tested on: penicillinase producing Staphylococcus aureus; assay: Effects of flavone in combination with benzylpenicillin or methicillin on penicillinase producing Staphylococcus aureus; assay type: cell-based
Procedure: as §1
The effects of flavone in combination with benzylpenicillin or methicillin on penicillinase producing Staphylococcus aureus are shown in Table 4.
Effects of Flavone in Combination with Benzylpenicillin or Methicillin on Penicillinase Producing Staphylococcus aureus.

[5] = tested on: MRSA infected mouse; assay: Antibacterial activity on MRSA infected mouse (survival rate after 5 days); assay type: in vivo
Procedure: MRSA was incubated with Brain-Heart Infusion medium at 37° C. for 18 hours, and then the bacteria were collected and washed, followed by resuspension in saline. The suspension was admixed in an aqueous 5% gastric mucin solution and the concentration was adjusted to a predetermined value. Then, 0.2 mL of the mixture was intraperitoneally administered to an ICR strain SPF mouse. At one hour after the infection, various concentrations of β-lactam agents and rutin (0.2 mL) was subcutaneously administered, and survival rate was analyzed after 5 days and thus the effectiveness was evaluated. In addition, the effectiveness by oral administration (0.2 mL) was evaluated and various concentrations of β-lactam agents and rutin (0.2 mL) were administered using a gastric probe 1 hour or 5 hours prior to the infection.

[6] = Staphylococcus aureus, MRSA 20 strains
[7] = Staphylococcus aureus, MRSA 20 strains, read-out: MIC50
[8] = Staphylococcus aureus, MRSA 20 strains, read-out: MIC90

Structure (SMILES) | MIC50 [1, 7] | MIC90 [1, 8] | MIC [3] | MIC +flavone [3] | also measured
O=C1c2ccc(O)cc2OC(c2cc(O)c(O)c(O)c2)C1O (stereo in doubt) [dihydrorobinetin] | – | – | – | – | MIC50 ([1]; MRSA 20 strains): 250 µg/mL (≈ 822 µM); MIC90 ([1]; MRSA 20 strains): 250 µg/mL (≈ 822 µM); MIC range ([1]; MRSA 20 strains): 250 µg/mL (≈ 822 µM)
O=c1cc(-c2ccc(O)c(O)c2)oc2ccccc12 [3′,4′-dihydroxyflavone] | 125 µg/mL (≈ 492 µM) | 250 µg/mL (≈ 983 µM) | – | – | MIC [1, 6]: 62.5 to 250 µg/mL (≈ 246 to 983 µM); antibacterial activity on MRSA (in words) [1]: potent antibacterial activity
O=c1cc(-c2ccc(O)cc2)oc2cc(O)ccc12 [7,4′-dihydroxyflavone] | 250 µg/mL (≈ 983 µM) | 500 µg/mL (≈ 1970 µM) | – | – | MIC [1, 6]: 125 to 500 µg/mL (≈ 492 to 1970 µM)
Oc1cc(O)c2c(c1)O[C@@H](c1cc(O)c(O)c(O)c1)[C@H](O)C2 [(−)-gallocatechin] | – | – | – | – | MIC of methicillin [2]: 2 µg/mL
O=C(/C=C/c1ccc(O)c(O)c1)c1ccc(O)cc1O [butein] | 250 µg/mL (≈ 918 µM) | 250 µg/mL (≈ 918 µM) | – | – | MIC [1, 6]: 125 to 250 µg/mL (≈ 459 to 918 µM)
CC(=O)OCC1=C(C(=O)O)N2C(=O)[C@@H](NC(=O)CSc3ccncc3)[C@H]2SC1 [cefapirin] | – | – | 128 µg/mL | <0.016 µg/mL | survival rate ([5]; antibiotic alone, 0.5 mg/mouse, after 5 days): 20%; survival rate ([5]; antibiotic alone, 1 mg/mouse, after 5 days): 20%; survival rate ([5]; antibiotic alone, 5 mg/mouse, after 5 days): 20%; survival rate ([5]; antibiotic alone, 10 mg/mouse, after 5 days): 20%; survival rate ([5]; antibiotic alone, 15 mg/mouse, after 5 days): 40%; survival rate ([5]; oral, antibiotic 10 mg/mouse with rutin 5 mg/mouse): 40%; survival rate ([5]; oral, antibiotic 10 mg/mouse with rutin 10 mg/mouse): 60%; survival rate ([5]; oral, antibiotic 15 mg/mouse with rutin 5 mg/mouse): 60%; survival rate ([5]; oral, antibiotic 15 mg/mouse with rutin 10 mg/mouse): 80%; survival rate ([5]; subcutaneous, antibiotic 10 mg/mouse with rutin 5 mg/mouse): 0%; survival rate ([5]; subcutaneous, antibiotic 10 mg/mouse with rutin 10 mg/mouse): 20%; survival rate ([5]; subcutaneous, antibiotic 15 mg/mouse with rutin 5 mg/mouse): 80%; survival rate ([5]; subcutaneous, antibiotic 15 mg/mouse with rutin 10 mg/mouse): 100%
CO[C@@]1(NC(=O)Cc2cccs2)C(=O)N2C(C(=O)O)=C(COC(N)=O)CS[C@@H]21 [cefoxitin] | – | – | 512 µg/mL | 32 µg/mL | –
CC1=C(C(=O)O)N2C(=O)[C@@H](NC(=O)[C@H](N)C3=CCC=CC3)[C@H]2SC1 [cefradine] | – | – | > 256 µg/mL | 1 µg/mL | –

Now from value to molecule, other results behind:

MIC50 [1, 7] | MIC90 [1, 8] | MIC [3] | MIC +flavone [3] | Structure (SMILES) | also measured
62.5 µg/mL (≈ 246 µM) | 125 µg/mL (≈ 492 µM) | – | – | O=c1cc(-c2ccccc2)oc2cc(O)c(O)cc12 [6,7-dihydroxyflavone] | antibacterial activity on MRSA (in words) [1]: potent antibacterial activity
62.5 µg/mL (≈ 246 µM) | 125 µg/mL (≈ 492 µM) | – | – | O=c1cc(-c2ccccc2)oc2c(O)c(O)ccc12 [7,8-dihydroxyflavone] | MIC [1, 6]: 31.3 to 125 µg/mL (≈ 123 to 492 µM); antibacterial activity on MRSA (in words) [1]: potent antibacterial activity
– | – | 64 µg/mL | 32 µg/mL | CC1(C)S[C@@H]2[C@H](NC(=O)Cc3ccccc3)C(=O)N2[C@H]1C(=O)O [benzylpenicillin] | MIC ([4]; + flavone 50 μg/mL): 0.39 µg/mL; MIC ([4]; antibiotic alone): 1.56 µg/mL
– | – | > 256 µg/mL | 4 µg/mL | CC1(C)S[C@@H]2[C@H](NC(=O)C(C(=O)O)c3ccccc3)C(=O)N2[C@H]1C(=O)O (stereo partly shown) [carbenicillin] | –
– | – | > 1020 µg/mL | 64 µg/mL | CO/N=C(\C(=O)N[C@@H]1C(=O)N2C(C(=O)O)=C(COC(C)=O)CS[C@H]12)c1csc(N)n1 [cefotaxime] | –
– | – | 1020 µg/mL | 512 µg/mL | CO/N=C(\C(=O)N[C@@H]1C(=O)N2C(C(=O)O)=C(COC(N)=O)CS[C@H]12)c1ccco1 [cefuroxime] | –
250 µg/mL | > 500 µg/mL | – | – | Oc1cc(O)c2cc(O)c(-c3ccc(O)c(O)c3)[o+]c2c1 [cyanidin] | –
